The target of assay [1] is T1, Fructose-1,6-bisphosphatase 1 (Sus scrofa, UniProt P00636).
T1 sequence (P00636 whole entry): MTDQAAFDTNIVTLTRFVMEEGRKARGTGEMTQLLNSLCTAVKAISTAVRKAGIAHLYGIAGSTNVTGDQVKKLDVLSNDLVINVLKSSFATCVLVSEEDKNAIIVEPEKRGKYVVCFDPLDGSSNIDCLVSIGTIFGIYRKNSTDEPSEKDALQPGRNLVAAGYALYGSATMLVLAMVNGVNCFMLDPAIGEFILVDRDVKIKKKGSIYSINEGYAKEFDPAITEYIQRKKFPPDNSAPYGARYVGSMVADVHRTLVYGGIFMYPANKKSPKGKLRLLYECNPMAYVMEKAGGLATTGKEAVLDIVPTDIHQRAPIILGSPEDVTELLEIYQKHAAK
As to the kind of experiment: Inhibition of pig kidney fructose-1,6-bisphosphatase expressed in Escherichia coli BL21 (DE3) assessed as reduction of NADP+ to NADPH by phosphoglucose isomerase/glucose-6-phosphate dehydrogenase coupled assay.

Assay [2] has as its target T2, Fructose-1,6-bisphosphatase 1 (Homo sapiens, UniProt P09467).
T2 sequence (P09467 whole entry): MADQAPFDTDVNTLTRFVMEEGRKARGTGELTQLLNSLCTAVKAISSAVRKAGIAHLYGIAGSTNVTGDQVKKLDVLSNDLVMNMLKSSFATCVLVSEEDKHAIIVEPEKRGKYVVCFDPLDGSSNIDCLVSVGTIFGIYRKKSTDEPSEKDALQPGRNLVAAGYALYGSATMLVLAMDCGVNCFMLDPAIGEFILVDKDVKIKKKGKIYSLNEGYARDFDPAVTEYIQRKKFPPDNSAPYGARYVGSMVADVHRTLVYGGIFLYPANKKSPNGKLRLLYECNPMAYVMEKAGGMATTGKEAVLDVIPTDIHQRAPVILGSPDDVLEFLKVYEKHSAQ
Put plainly: Inhibition of human liver fructose-1,6-bisphosphatase expressed in Escherichia coli BL21 (DE3) assessed as reduction of NADP+ to NADPH by phosphoglucose isomerase/glucose-6-phosphate dehydrogenase coupled assay.

Consider three compounds from ChEMBL document CHEMBL1157047, “Designing inhibitors against fructose 1,6-bisphosphatase: exploring natural products for novel inhibitor scaffolds” (Eur J Med Chem, 2010).

For the compound `Oc1cc(O)c2c(c1)oc1cc(O)cc(O)c12`, the IC50 result in assay [1] and in assay [2] was “Not Active” throughout.
Take `CC(=O)C1=C(O)C=C2Oc3c(C(C)=O)c(O)c(C)c(O)c3[C@@]2(C)C1=O` [(+)-USNIC ACID]: the IC50 in assay [2] (read-out: IC50) stood at 371 µM.
Consider `Nc1ncnc2c1ncn2[C@@H]1O[C@H](COP(=O)(O)O)[C@@H](O)[C@H]1O` [ADENOSINE PHOSPHATE], for which the IC50 in assay [2] (read-out: IC50) came out at 9.8 µM.

The IC50 is the concentration needed to halve the response being measured.
